We go through five molecules from patent US9551718B2, “TMEM120A ion channel modulator” (priority 2014, dated 2017).

A value given as a limit tells only on which side of the number the result lay.

Series [1] has as its system mechanically-activated slowly-adapting (SA) current. Particulars: sensory neurons; cited from earlier work.
For another series, the system named is MIA injected mice. Briefly: Knee flexion-extension pain score after intra-articular injection in MIA mice. It counts as in vivo, mouse. Particulars: for analgesia, knee flexion-extension pain score: intra-articular. As to the method: (§1) Osteoarthritis is induced by injection of MIA (25 μg dissolved in 5 μl physiological saline) in the mouse knee joint. Control mice receive saline injection. The previously-described knee-bend test^28 is used to assess mechanical allodynia at the primary site of OA pain, as this test provides information regarding pain induced by movement of the affected joint^28 (FIG. 2a). Briefly, each test consists of 5 flexions and 5 extensions of the knee joint, and the total number of vocalization/struggle is recorded. The knee mechanical withdrawal threshold is determined with the Pressure Application Measurement (PAM) device, as previously described^132. Briefly, mice are gently restrained and a force transducer wrapped around the experimenter's thumb is pressed against the knee joint. […] Once the mouse withdraws its knee, the sensor identifies the maximum force applied before the withdrawal.
The GsMTx4 peptide sequence is […] (SEQ ID NO: 5). […] Moreover, it confirms that intra-articular injections can reach the nerve terminals of knee-innervating nociceptors. […] This indicates the analgesia is not due to the peptide leaking out of the joint to have a systemic effect. N=6-10 for GsMTx4 injections, N=9 for all groups in lidocaine trial.

Series [2] concerns TMEM120A. As to the kind of experiment: shRNA knockdown of TMEM120A in kidney epithelial cells (mIMCD), mechanosensitivity. Particulars: lentiviral particles. It counts as cell-based, mouse. As to the method:
Knockdown was performed by infecting the cells in culture with lentiviral particles expressing an shRNA against TMEM120A and a puromycin resistance gene. This mean of selection enabled to identify cells that had taken up the shRNA. A quantitative polymerase chain reaction was then performed to verify that mRNA levels for TMEM120A were down. The shRNA sequence is […] TTTG (SEQ ID NO: 4).

Series [3] deals with OA mice. Briefly: Behavioral pain score in the OA mouse model after injection of an MSC blocker. Type of series: in vivo. Particulars: injection around 28 days following MIA. The protocol:
as §1
In an in vivo mouse OA model as described in Example 1, the OA mice further received around 28 days following injection of MIA an injection of a vehicle or either a toxin (GsMTx4 or gadolinium) blocking the MSCs.

Series [4] has as its system OA mice. Briefly: Von Frey test of secondary mechanical allodynia after hindpaw injection. Type of series: in vivo, mouse. As to the method: Von Frey filaments are used to assess the secondary mechanical allodynia in the hindpaw (FIG. 2a). Mechanical withdrawal threshold is assessed by touching the plantar surface of the hindpaw with von Frey filaments using the up-down method as previously described^133. Positive withdrawals are counted as biting, licking and/or withdrawal of the paw during the 3 sec stimulus. In the knee-bend and PAM tests, MSC blockers are injected in the knee joint. In the von Frey test, they are injected in the intraplantar region.
To determine whether MSCs in nerve terminals at the primary site of the pathology (knee) contribute to mechanical allodynia in OA, the MSC blockers, GsMTx4 or gadolinium are injected in the knee joint of OA mice. Behavioral experiments include the knee-bend test^28 and the knee mechanical withdrawal test. To determine if MSCs contribute to secondary mechanical allodynia, GsMTx4 or gadolinium is injected in the ipsilateral hindpaw and assess secondary allodynia using the von Frey test. To determine whether these channels contribute to mechanosensitivity in the absence of allodynia, the blockers are injected in the knee joint or hindpaw of control mice.

The subject of series [5] is cationic stretch-activated ion channels. The conditions noted are these: from the extracellular side; cited from earlier work.
The target of series [6] is T1, TMEM120A (Homo sapiens, UniProt Q9BXJ8).
T1 construct: expressed in transfected cells
T1 sequence (Q9BXJ8 1-343): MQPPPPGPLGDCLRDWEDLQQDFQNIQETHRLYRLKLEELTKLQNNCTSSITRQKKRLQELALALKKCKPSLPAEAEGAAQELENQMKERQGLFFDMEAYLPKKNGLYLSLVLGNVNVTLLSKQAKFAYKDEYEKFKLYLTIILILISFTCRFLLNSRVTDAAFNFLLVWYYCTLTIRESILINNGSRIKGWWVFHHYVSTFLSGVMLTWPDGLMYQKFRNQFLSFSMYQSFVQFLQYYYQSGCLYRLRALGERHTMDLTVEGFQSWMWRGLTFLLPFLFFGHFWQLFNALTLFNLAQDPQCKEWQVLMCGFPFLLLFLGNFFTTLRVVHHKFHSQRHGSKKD
As to the kind of experiment: Cobalt precipitate accumulation in CHO cells stably expressing TMEM120A exposed to hypotonic media. Particulars: cells pretreated with blocker. It counts as cell-based. From the text: In an embodiment, the assay comprises exposing CHO cells stably expressing TMEM120A (or controls) to hypotonic media. The membrane stretch caused by the swelling opens the channels, enabling the influx of calcium ions and other molecules such as cobalt if present in the media. Quantitating the ion channel activity after the cobalt enters the cells can comprise treating the cells with ammonium sulphide (1.2% Sigma # A1952), then fixing them with paraformaldehyde, then amplified through the silver enhancement method and measuring the amount of cobalt precipitate compared to a control.
CHO cells stably expressing TMEM120A (or controls) were exposed to hypotonic media. The membrane stretch caused by the swelling opens the channels, enabling the influx of calcium ions. In one alternative, calcium ions are substituted for cobalt After cobalt enters the cells, it is precipitated with ammonium sulfide, then the cells are fixed for example with paraformaldehyde, the precipitate is amplified through the silver enhancement method (by following steps provided by the commercial supplier, Sigma).

For series [7], the system named is MSC activity in knee-innervating nociceptors. As to the kind of experiment: Outside-out patch recording of mechanically-evoked MSC current in knee-innervating nociceptors. It counts as cell-based, mouse. As to the method:
Isolated mouse sensory neurons are obtained by enzymatic digestion of the dorsal root ganglia L3-L4 followed by mechanical dispersion. Joint-innervating neurons are identified by the presence of Fluorogold (FG), a retrograde tracer injected in the knee joint 72 hours prior to dissection. […] Transgenic mice that express the fluorescent protein TdTomato in nociceptors are generated by crossing Crerecombinase-dependent TdTomato reporter mice to Trpv1-Cre mice (FIG. 4). In this approach, recording can be made specifically from articular nociceptors (FG- and TdTomato-positive neurons).
Experiments are done for example 1 hour after plating the isolated neurons in petri dishes, or after 3 days in culture (for example for conducting siRNA experiments). Whole-cell^137,138 and cell-attached^100,102 recordings are obtained using glass pipettes mounted to amplifier headstages driven by motorized micromanipulators. Signals are amplified using multi-clamp 700B amplifiers. All experimental protocols, data acquisition and analysis are performed using the Clampex® and Clampfit™ software.
MSCs are activated using different approaches. In whole-cell recordings, a computer driven stimulating probe is brought near the cell membrane, then brief steps of 0.5 μm amplitude are made toward the cell at a 45 degree angle using a motorized 3-axis micromanipulator. In cell-attached recordings, brief pulses of negative pressure are applied through the recording electrode to increase membrane tension and evoke MSC opening. These pressure pulses are generated by a high-speed pressure clamp device previously validated^100,102.
An outside-out patch is formed and the minimal positive pressure (+P) is applied to open MSCs. 5 μM GsMTx4 is superfused and the protocol is run again. GsMTx4 is then washed and the same patch undergoes one final protocol run. […] Likewise, wash causes the recovery of the reduction (Kruskal-Wallis with Dunn's multiple comparisons, n=161, 85, 100 for control, GsMTx4 and wash, respectively.

Take `N.N.N.N.N.N.N.N.N.N.N.N.N.N.[Cl-].[Cl-].[Cl-].[Cl-].[Cl-].[Cl-].[O-2].[O-2].[Ru+3].[Ru+3].[Ru+4]` [ruthenium red]: the “block of SA current” value in series [1] is “blocked”.

For `CCN(CC)CC(=O)Nc1c(C)cccc1C` [lidocaine], the percentage of analgesia entry in the series on MIA injected mice (5% in DMSO, intra-articular injection, vs vehicle) is “significantly larger percentage of analgesia compared to vehicle”.

“CCGGTTCCTGCTGGTCTGGTATTATCTCGAGATAATACCAGACCAGCAGGAATT TTTG (CCGGTTCCTGCTGGTCTGGTATTATCTCGAGATAATACCAGACCAGCAGGAATTTTTG; expressed or natural sequence) [shRNA against TMEM120A, short hairpin RNA against TMEM120A expressed from lentiviral particles]”: in the series on TMEM120A [2], the mechanosensitivity result is reported as “reduces mechanosensitivity”.

Turning to “GCLEFWWKCNPNDDKCCRPKLKCSKLFKLCNFSF (listed as Grammostola spatulata) [GsMTx4]”, the “analgesia, knee flexion-extension pain score” value is recorded as “unable to produce analgesia” in the series on MIA injected mice (5 μM) and “significant analgesia compared to vehicle” with MIA injected mice (50 μM, ipsilateral knee, vs saline). The “analgesia, knee flexion-extension on the ipsilateral knee” value with MIA injected mice (50 μM injected in the contralateral knee) is “does not provide analgesia”. Moreover, in the series on OA mice [3], the “pain level as measured by a behavioral score” value is recorded as “significantly decreases the pain level”. In addition, the secondary allodynia result in the series with OA mice [4] (intraplantar injection 15 days after OA induction) was “significant and reversible attenuation of the secondary allodynia”. The “mechanical sensitivity (withdrawal threshold)” value in the series with OA mice [4] (intraplantar injection, naïve mice) is recorded as “does not affect mechanical sensitivity”. Also, the “duration of effect on mechanical hypersensitivity” value in the series on OA mice [4] (ipsilateral hindpaw injection, MIA mice) is at most 24 h. Further, the “block of cationic stretch-activated ion channels” value in series [5] is listed as “block cationic stretch-activated ion channels”. The “block of SA current” value in series [1] is listed as “blocked”. Besides, in the series with TMEM120A [6], the “accumulation of cobalt precipitate on hypotonic stimuli” value was “accumulation can be prevented”. Besides, in series [7] (5 μM superfused, outside-out patch), the “mean open time of the channel” value is given as “mean open time is also significantly reduced”. In addition, the “mechanically-evoked current (normalized to control trace)” value in series [7] (5 μM superfused, outside-out patch, minimal positive pressure) is recorded as “significantly reduces the mechanically-evoked current”. The “reversibility of current reduction on wash” value in series [7] (after wash of 5 μM GsMTx4) is reported as “this reduction is recovered following wash”.

For the molecule `[Gd]` [gadolinium], in the series with OA mice [3], the “pain level as measured by a behavioral score” value is “significantly decreases the pain level”. Also, the “block of SA current” value in series [1] was “blocked”. For the same molecule, the “accumulation of cobalt precipitate on hypotonic stimuli” value at TMEM120A [6] is “accumulation can be prevented”.
